Experimental findings from patent US20240140931A1, “TRICYCLIC COMPOUNDS AND USES THEREOF” (HUTCHMED LIMITED, priority 2021, published 2024) are described below.

For assay [1], the target named is Human full-length SHP2 recombinant protein (Homo sapiens (Human), UniProt Q06124). In words: Assay of full-length SHP2 phosphatase activity. The format is biochemical. The settings on record: DiFMUP substrate, with activating peptide. The method, boiled down: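 Readout: DiFMUP hydrolysis fluorescence (355/460 nm) after 60 min at 25 °C, following 30 min RT preincubation of compound with peptide-activated full-length human SHP2. Controls were 1% DMSO with or without enzyme; IC50 by four-parameter logistic fit.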
Chain of Human full-length SHP2 recombinant protein (Q06124 whole entry): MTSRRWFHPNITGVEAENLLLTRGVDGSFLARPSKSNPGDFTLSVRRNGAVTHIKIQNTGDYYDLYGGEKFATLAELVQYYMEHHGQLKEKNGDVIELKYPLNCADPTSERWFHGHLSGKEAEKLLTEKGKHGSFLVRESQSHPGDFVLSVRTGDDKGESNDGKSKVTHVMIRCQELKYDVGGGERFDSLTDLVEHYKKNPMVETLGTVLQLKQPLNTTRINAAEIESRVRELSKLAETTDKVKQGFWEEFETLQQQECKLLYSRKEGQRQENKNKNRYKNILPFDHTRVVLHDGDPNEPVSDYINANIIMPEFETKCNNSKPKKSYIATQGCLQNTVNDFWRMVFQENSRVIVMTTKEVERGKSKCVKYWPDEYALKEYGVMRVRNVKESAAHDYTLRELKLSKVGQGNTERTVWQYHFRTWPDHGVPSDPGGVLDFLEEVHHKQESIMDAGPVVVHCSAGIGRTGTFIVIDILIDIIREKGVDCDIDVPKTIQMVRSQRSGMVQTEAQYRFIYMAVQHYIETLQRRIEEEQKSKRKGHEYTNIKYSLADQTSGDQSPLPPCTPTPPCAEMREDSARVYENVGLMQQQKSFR

The test system of assay [2] is pERK1/2 (Thr202/Tyr204) in Miapaca2 cells. In words: Assay of intracellular pERK1/2 (Thr202/Tyr204) phosphorylation. The format is cell-based. Particulars: pERK1/2 (Thr202/Tyr204) HTRF. In short, it runs like this: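 HTRF read-out (665/615 nm) of phospho-ERK1/2 Thr202/Tyr204 in lysates from Miapaca2 cells exposed for 2 h to 3-fold compound dilutions at 0.5% final DMSO. Controls: lysis buffer without cells and DMSO-treated cells; IC50 from four-parameter logistic fit.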

A further assay relates to Miapaca2 3D spheroids. The assay is described as follows: Assay of cell proliferation on Miapaca2 3D spheroids. The format is cell-based. The settings on record: CellTiter-Glo 3D, 5 days treatment. The method, then: Example 4 Assay of Cell Proliferation on Miapaca2 3D Spheroids
1. Reagents and Materials • CellTiter-Glo® 3D Cell Viability Assay Kit: Promega, Cat #G9683; • CellCarrier Spheroid ULA 96-well plate: Corning, Cat #4515; • Instrument: Envision, Perkinelmer; • Cell line: Miapaca2, ATCC, Cat #CRL-1420.
2. Preparation of Reaction Solutions • The test compound was dissolved in DMSO and diluted with DMSO to 3000.0 μM, and the compound was further 3-fold diluted with DMSO to: 1000.0, 333.3, 111.1, 37.0, 12.3, 4.1, and 1.4 μM. Then 2 μL of the compound at different dilution concentrations was added to 198 μL of a 1640 medium to prepare a 10× test compound, wherein DMSO was at the concentration of 1% (DMSO was at the final concentration of 0.1%).
3. Experimental Methods • Day0: Digest cells and count cell numbers. Miapaca2 cells were inoculated into a spheroid ULA 96-well plate at a density of 300 cells/well at 100 μL/well and cultured in a cell incubator at 5% CO2 and 37° C. • Day2: The cell spheroids formed at day2. Add 10 μL of 10× test compounds to the 96-well plate. To the cell positive control well was added 10 μL of 1% DMSO 1640 medium. Incubate the cell spheroids in a cell incubator at 5% CO2 and 37° C. for additional 5 days. • Cell viability assay: Add 50 μL of CellTiter-Glo reagent to each well, place the plate in a microplate shaker, and lysis under shaking at 900 rpm at room temperature for 5 minutes. Then incubate the plate at room temperature in the dark for 30 minutes. • The luminescene of each well was detected on Envision2104.
Cell Survial %=(Lum(d7 treatment)−Lum(d2 cell))/(Lum(d7 cell)−Lum(d2 cell))×100
Wherein: • Lum(d7 treatment) refers to the luminescene of the test compound treated cells on day7; • Lum(d2 cell) refers to the luminescene of the 0.1% DMSO treated Miapaca2 cells on day2; • Lum(d7 cell) refers to the luminescene of the 0.1% DMSO treated Miapaca2 cells on day7. • IC50 values were calculated following formula 205: y=A+((B−A)/(1+((C/X)^D))), by using the XL-Fit 5.0 software.
Background: In ATP-based viability assays light output follows the ATP content of the culture.

The mark [3] stands for this setting: Homo sapiens, MIA PaCa-2, 120 h.

Regarding `Nc1nccc(Sc2cnc(N3CCC4(CC3)Cc3ccc(C#CC(=O)NC5CC5)cc3[C@H]4N)cn2)c1Cl` [Compound 296], the IC50 – broadly, the midpoint of a concentration-inhibition curve – was found to be 0.3 nM in assay [1]; 2 nM in assay [2] (Homo sapiens, MIA PaCa-2, 2 h); 0.7 nM in the assay on Miapaca2 3D spheroids (setting [3]).
Regarding `COc1nccc(Sc2nc(C)c(N3CCC4(CC3)Cc3ccc(C#CC(=O)N(C)C)cc3[C@H]4N)nc2N)c1Cl` [Compound 204], the IC50 is 6 nM in assay [1]; 54 nM in assay [2] (Homo sapiens, MIA PaCa-2, 2 h); 121 nM with Miapaca2 3D spheroids (setting [3]).
`CCNC(=O)C#Cc1ccc2c(c1)[C@@H](N)C1(CCN(c3cnc(Sc4ccnc(N)c4Cl)cn3)CC1)O2` [Compound 293]: the IC50 is 1 nM in assay [1]; 5 nM in assay [2] (Homo sapiens, MIA PaCa-2, 2 h); 0.9 nM in the assay on Miapaca2 3D spheroids (setting [3]).
In the case of `Cc1nc(Sc2ccnc(N)c2Cl)cnc1N1CCC2(CC1)Cc1ccc(C#CC(N)=O)cc1[C@H]2N` [Compound 271], the 50% inhibitory concentration (IC50) in assay [1] worked out at 1 nM; in assay [2] (Homo sapiens, MIA PaCa-2, 2 h), 4 nM; in the assay on Miapaca2 3D spheroids (setting [3]) it was 2 nM.
For `CC#Cc1ccc2c(c1)[C@@H](N)C1(CCN(c3nc(N)c(Sc4ccnc(N)c4Cl)c(=O)n3C)CC1)C2` [Compound 289], the IC50 in assay [1] was 2 nM; in assay [2] (Homo sapiens, MIA PaCa-2, 2 h), 4 nM; in the assay with Miapaca2 3D spheroids (setting [3]) it was 2 nM.
In the case of `CNC(=O)C#Cc1ccc2c(c1)[C@@H](N)C1(CCN(c3ncc(Sc4ccnc(N)c4Cl)n4nccc34)CC1)C2` [Compound 177], the IC50 in assay [1] stood at 2 nM; in assay [2] (Homo sapiens, MIA PaCa-2, 2 h), 7 nM; in the assay on Miapaca2 3D spheroids (setting [3]), 4 nM.
As to `C#Cc1cc(F)c2c(c1)[C@@H](N)C1(CCN(c3nc(C)n(-c4cccc(Cl)c4Cl)c(=O)c3C)CC1)C2` [Compound 168], the IC50 in assay [1] stood at 10 nM; in assay [2] (Homo sapiens, MIA PaCa-2, 2 h), 34 nM; in the assay on Miapaca2 3D spheroids (setting [3]) it was 77 nM.
Consider `CCNC(=O)C#Cc1ccc2c(c1)[C@@H](N)C1(CCN(c3cnc(Sc4cc(N)nc(Cl)c4Cl)cn3)CC1)C2` [Compound 256], for which the IC50 in assay [1] worked out at 4 nM; in assay [2] (Homo sapiens, MIA PaCa-2, 2 h), 12 nM; in the assay on Miapaca2 3D spheroids (setting [3]) it was 6 nM.
As for `COCCN(C)C(=O)C#Cc1ccc2c(c1)[C@@H](N)C1(CCN(c3cnc(Sc4ccnc(N)c4Cl)cn3)CC1)C2` [Compound 301], the IC50 in assay [1] is 0.4 nM; in assay [2] (Homo sapiens, MIA PaCa-2, 2 h) it was 5 nM; in the assay with Miapaca2 3D spheroids (setting [3]) it was 1 nM.
For `Cc1nc(Sc2ccnc(N)c2Cl)c(N)nc1N1CCC2(CC1)Cc1ccc(C#CC(N)=O)cc1[C@H]2N` [Compound 276], the IC50 was determined as 2 nM in assay [1]; 4 nM in assay [2] (Homo sapiens, MIA PaCa-2, 2 h); 3 nM with Miapaca2 3D spheroids (setting [3]).
The corresponding values for `Cc1nc(Sc2ccnc(N)c2Cl)c(N)nc1N1CCC2(CC1)Cc1ccc(C#CC(=O)NC3CC3)cc1[C@H]2N` [Compound 225] are 2 nM, 6 nM and 2 nM.
The corresponding values for `CN(C)C(=O)C#Cc1ccc2c(c1)[C@@H](N)C1(CCN(c3ncc(Sc4ccnc(N)c4Cl)n4nccc34)CC1)C2` [Compound 196] are 3 nM, 8 nM and 21 nM.
With `CC#Cc1ccc2c(c1)[C@@H](N)C1(CCN(c3cc(=O)n(-c4ccc(F)c(Cl)c4Cl)c(C)n3)CC1)C2` (atropisomer, axis not shown) [Compound 221], the results for the IC50 (in assay [1]; in assay [2] (2 hours); in the assay with Miapaca2 3D spheroids (setting [3])) were 1 nM, 15 nM and 63 nM, respectively.
As for `C#Cc1ccc2c(c1)[C@@H](N)C1(CCN(c3ncc(Sc4ccnc(N)c4Cl)n4ncnc34)CC1)C2` [Compound 179], the IC50 in assay [1] was 4 nM; in assay [2] (Homo sapiens, MIA PaCa-2, 2 h), 112 nM; with Miapaca2 3D spheroids (setting [3]) it was 65 nM.
In the same order, the values of `C#Cc1ccc2c(c1)[C@@H](N)C1(CCN(c3cc(=O)n(-c4cccc(Cl)c4Cl)c(N)n3)CC1)C2` [Compound 245] are under 0.5 nM, 12 nM and 17 nM.
In the case of `CNC(=O)C#Cc1ccc2c(c1)[C@@H](N)C1(CCN(c3cc(=O)n(-c4ccc(F)c(F)c4Cl)c(C)n3)CC1)C2` (atropisomer, axis not shown) [Compound 209], the IC50 amounted to 1 nM in assay [1], 19 nM in assay [2] (2 hours) and 38 nM in the assay with Miapaca2 3D spheroids.
Take `COCC#Cc1ccc2c(c1)[C@@H](N)C1(CCN(c3cc(=O)n(-c4ccc(C#N)c(OC)c4F)c(C)n3)CC1)C2` [Compound 197]: the half-inhibitory concentration (IC50) in assay [1] is 3 nM; in assay [2] (Homo sapiens, MIA PaCa-2, 2 h) it was 29 nM; in the assay on Miapaca2 3D spheroids (setting [3]), 38 nM.
The corresponding values for `CNC(=O)C#Cc1ccc2c(c1)[C@@H](N)C1(CCN(c3cnc(Sc4ccnc(N)n4)cn3)CC1)C2` [Compound 262] are 0.3 nM, 7 nM and 1 nM.
With `CNC(=O)C#Cc1ccc2c(c1)[C@@H](N)C1(CCN(c3cnc(Sc4cccnc4C(F)(F)F)cn3)CC1)C2` [Compound 242], the IC50 in assay [1] worked out at 0.7 nM; in assay [2] (Homo sapiens, MIA PaCa-2, 2 h), 13 nM; with Miapaca2 3D spheroids (setting [3]), 2 nM.
As for `C#Cc1ccc2c(c1)[C@@H](N)C1(CCN(c3cc(=O)n(-c4ccc(C#N)c(Cl)c4Cl)c(C)n3)CC1)C2` [Compound 184], the figures for the IC50 (in assay [1]; in assay [2] (2 hours); with Miapaca2 3D spheroids (setting [3])) were 3 nM, 67 nM and 96 nM, respectively.
For the compound `CCNC(=O)C#Cc1ccc2c(c1)[C@@H](N)C1(CCN(c3cnc(Sc4ccnc(N)c4Cl)c(N)n3)CC1)C2` [Compound 226], the IC50 came to 1 nM in assay [1]; 2 nM in assay [2] (Homo sapiens, MIA PaCa-2, 2 h); 0.4 nM in the assay on Miapaca2 3D spheroids (setting [3]).
In the case of `Cc1nc(N2CCC3(CC2)Cc2ccc(C#CC(=O)N(C)C)cc2[C@H]3N)cc(=O)n1-c1cccc(Cl)c1Cl` [Compound 194], the IC50 in assay [1] worked out at 1 nM; in assay [2] (Homo sapiens, MIA PaCa-2, 2 h), 18 nM; with Miapaca2 3D spheroids (setting [3]) it was 36 nM.
The corresponding values for `CCNC(=O)C#Cc1ccc2c(c1)[C@@H](N)C1(CCN(c3cnc(Sc4c(F)cnc(N)c4Cl)cn3)CC1)C2` [Compound 269] are 0.9 nM, 7 nM and 3 nM.
In the same order, the values of `CCNC(=O)C#Cc1ccc2c(c1)[C@@H](N)C1(CCN(c3ncc(Sc4ccnc(N)c4Cl)nn3)CC1)C2` [Compound 249] are 1 nM, 31 nM and 19 nM.
The corresponding values for `NC(=O)C#Cc1ccc2c(c1)[C@@H](N)C1(CCN(c3cnc(Sc4ccnc(N)c4F)c(N)n3)CC1)C2` [Compound 275] are 0.5 nM, 2 nM and 2 nM.
Regarding `C#Cc1ccc2c(c1)[C@@H](N)C1(CCN(c3ncc(Sc4ccnc(N)c4Cl)n4nccc34)CC1)C2` [Compound 156], the IC50 in assay [1] amounted to 6 nM; in assay [2] (Homo sapiens, MIA PaCa-2, 2 h), 10 nM; with Miapaca2 3D spheroids (setting [3]), 31 nM.
In the same order, the values of `CNC(=O)C#Cc1ccc2c(c1)[C@@H](N)C1(CCN(c3cnc(Sc4ccnc(N)c4F)c(N)n3)CC1)C2` [Compound 264] are 0.6 nM, 2 nM and 0.4 nM.
In the same order, the values of `CNC(=O)C#Cc1ccc2c(c1)[C@@H](N)C1(CCN(c3cnc(Sc4ccnc(N)c4Cl)cn3)CC1)O2` [Compound 292] are 0.9 nM, 6 nM and 1 nM.
The corresponding values for `C#Cc1ccc2c(c1)[C@@H](N)C1(CCN(c3ncc(Sc4ccnc(N)c4Cl)c(=O)n3C)CC1)C2` [Compound 299, (S)-5-((2-amino-3-chloropyridin-4-yl)thio)-2-(1-amino-6-ethynyl-1,3-dihydrospiro[indene-2,4′-piperidin]-1′-yl)-3-methylpyrimidin-4(3H)-one] are 1 nM, 2 nM and 1 nM.
Turning to `Cc1nc(N2CCC3(CC2)Cc2ccc(C#CC(N)=O)cc2[C@H]3N)cnc1Sc1ccnc(N)c1Cl` [Compound 277], the IC50 in assay [1] worked out at 1 nM; in assay [2] (Homo sapiens, MIA PaCa-2, 2 h) it was 11 nM; in the assay on Miapaca2 3D spheroids (setting [3]) it was 5 nM.
Take `COCC#Cc1ccc2c(c1)[C@@H](N)C1(CCN(c3ncc(Sc4ccnc(N)c4Cl)c4nncn34)CC1)C2` [Compound 147]: the 50% inhibitory concentration (IC50) in assay [1] is 3 nM; in assay [2] (Homo sapiens, MIA PaCa-2, 2 h), 10 nM; in the assay with Miapaca2 3D spheroids (setting [3]) it was 48 nM.
